From patent publication US20250049749A1, “COMPOSITION FOR IMPROVING SLEEP QUALITY OR CONTROLLING AUTONOMIC NERVOUS SYSTEM” (OTSUKA PHARMACEUTICAL CO., LTD., priority 2021, published 2025)
“Also recorded” adds a separate entry of the source.

Legend:
Format in all cases: in vivo, human
[1] = tested on: healthy adult men and women; assay: Test 1: randomized, double-blind, placebo-controlled, crossover comparative test (sleep and autonomic nervous system, Fitbit Charge 4)
Procedure: A randomized, double-blind, placebo-controlled, crossover comparative test as summarized in the table below was conducted to examine the relationship between kaempferol, sleep, and the autonomic nervous system.
The granular foods used in the test were prepared according to the following procedure. Horseradish leaves were extracted twice with 50% aqueous ethanol at 50° C. and concentrated under reduced pressure. The concentrate was purified with resin to obtain a solution. Hemicellulase “Amano” 90 and Lactase F “Amano” (produced by Amano Enzyme, Inc.) were added to the solution to allow the enzyme to act thereon while stirring at 50° C. The resulting reaction liquid was then heated to 80° C. and maintained for 20 minutes to inactivate the enzyme. The resulting treated liquid was then freeze-dried to give an ethanol extract powder. This powder was combined with an equal amount (on a weight basis) of starch and erythritol and mixed into granules. The granules were packed in aluminum pouches in an amount of 116 mg (containing 10 mg of kaempferol) per pouch. The subjects ingested the contents of one pouch at one time (10 mg of kaempferol in total). The food used as a placebo was granules of starch and erythritol.
The sleep score is an index of sleep quality on a scale of 0 to 100, with a score of 90 to 100 indicating very good sleep quality, a score of 80 to 89 indicating good sleep quality, a score of 60 to 79 indicating slightly low sleep quality, and a score of 60 or less indicating low sleep quality. The sleeping heart rate is known to correlate with sleep quality. Specifically, it has been reported that the higher the heart rate during sleep, the less satisfactory the sleep obtained is (i.e., the quality of sleep is low) (see Non-Patent Literature (NPL) 1). […] This is generally consistent with the difference between the average sleeping heart rate in people with good quality sleep and that in people with poor sleep quality (FIG. 3 in NPL 1).
RMSSD is the square root of the mean squared differences of successive adjacent R-R intervals (interval from one QRS wave to the next QRS wave) and is an index of vagal tone intensity. A rise in RMSSD indicates increased parasympathetic activity or decreased sympathetic activity. […] According to the formula shown in FIG. 2 (right), KMP intake is considered to rejuvenate the age of autonomic nervous system function by 16.3 years.
The LF/HF ratio is a ratio of low frequency (LF) to high frequency (HF) power and represents the overall balance between the sympathetic nervous system and the parasympathetic nervous system. A higher LF/HF ratio indicates a state of sympathetic nervous system dominance, whereas a lower LF/HF ratio indicates parasympathetic nervous system dominance. […] According to the formula shown in FIG. 3 (right), KMP intake is considered to rejuvenate the age of autonomic nervous system function by 5.8 years.

athletes = assay: Test 2: athlete questionnaire (0 to 10) and comments before and on day 30 of intake
Procedure: The following tests were carried out to investigate the functions of kaempferol. [table] [table] In addition to the above score evaluations, an optional evaluation of the mental and physical state after intake of the test sample as compared to that before the intake was obtained in the form of comments.

[2] = tested on: persons with meteoropathy; assay: Test 3: meteoropathy symptom questionnaire before and after start of intake
Procedure: The test shown below was conducted to investigate the functions of kaempferol associated with meteoropathy. [table]

[3] = 10 mg KMP once a day, two weeks, vs placebo, FIG. 1
[4] = 10 mg KMP once a day, day 30 vs before intake, FIG. 4, FIG. 5
[5] = all subjects (159 athletes), 10 mg KMP once a day, day 30 vs before intake, FIG. 4
[6] = optional comment of a single subject, state after intake of the test sample vs before
[7] = swimmers (50 persons), day 30 vs before intake, FIG. 5
[8] = all symptoms, during KMP intake vs before, FIG. 7

## O=c1c(O)c(-c2ccc(O)cc2)oc2cc(O)cc(O)c12 [KMP, kaempferol]
[1]; [3]
  Reduction of sleeping heart rate on average: 3.5 bpm
  Sleep duration: no significant change
  Sleeping heart rate: significantly reduces
[1]; 10 mg KMP once a day, two weeks, vs placebo, FIG. 2 (left)
  RMSSD during sleep: increase in RMSSD value
[1]; 10 mg KMP once a day, two weeks, vs placebo, FIG. 3 (left)
  LF/HF ratio during sleep: reduces the LF/HF ratio
[1]; according to the formula shown in FIG. 2 (right)
  Rejuvenation of the age of autonomic nervous system function (from RMSSD vs age formula): 16.3 years
[1]; according to the formula shown in FIG. 3 (right)
  Rejuvenation of the age of autonomic nervous system function (from LF/HF ratio vs age formula): 5.8 years
[1]; granular food with 10 mg KMP once a day after breakfast, two weeks, vs placebo, 34 subjects, scale 0 to 100, FIG. 1
  Sleep score: significantly improves
athletes; [4]
  Achievement of exercise performance: useful
  Fatigue alleviation: useful
  Improvement of endurance (improved shortness of breath): useful
  Recovery from fatigue: useful
athletes; [5]
  Ease in sleep (questionnaire score): significant improvement
  Ease in waking up (questionnaire score): significant improvement
athletes; [6]
  Comments relating to menstruation: Menstrual pain has been relieved. Menstrual cycle; also recorded: irregularities has been improved; also recorded: Menstrual pain has been relieved and abdominal; also recorded: Swollen feet before menstruation has been relieved; also recorded: has come naturally; also recorded: returned to normal
  Comments relating to mental state: Have more motivation to practice; also recorded: Feel more highly motivated before a competition; also recorded: Feel more positive; also recorded: More mentally stable; also recorded: No longer feel depressed; also recorded: Feel less tired and more motivated to practice; also recorded: Feel better during practice; also recorded: Have become able to run more calmly than usual; also recorded: Feel more comfortable during running; also recorded: Feel more relaxed both during and outside of practice
  Other comments: The time taken to get rid of jet lag was reduced; also recorded: The symptoms of seasonal colds were not seen; also recorded: Stools have improved; also recorded: Bowel movements have improved; also recorded: Healing from injuries is faster; also recorded: Healing of fractures is much faster; also recorded: Healing of wounds after tooth extraction is faster; also recorded: Easier body weight loss; also recorded: Easier to control body weight gain; also recorded: Have improved concentration; also recorded: Symptoms of jet lag were alleviated
athletes; [7]
  Ease in sleep (questionnaire score), improvement in swimmers: particularly prominent
  Ease in waking up (questionnaire score), improvement in swimmers: particularly prominent
[2]; 10 mg KMP once a day, 4 consecutive weeks
  Effect on meteoropathy overall: effective in the treatment and improvement of meteoropathy
[2]; all 12 symptoms (stiff shoulders and neck, fatigue, lassitude, headache, overall ill health, irritation, depressed mood, inability to think straight, lower back pain, lethargy, anxiety, joint pain), 10 mg KMP once a day, 4 weeks, vs before intake, 393 subjects, FIG. 6
  Frequency of occurrence of each symptom of meteoropathy: significantly reduces
[2]; all 12 symptoms, KMP intake vs before intake, FIG. 8
  Degree of each symptom of meteoropathy (0-10 point scale): significantly alleviated
[2]; [8]
  Duration of each symptom of meteoropathy: significantly reduced duration
  Proportion of no occurrence of the symptom: increased proportion of no occurrence
